# Values joined by “and” are separate entries in the source; they are usually repeats but may differ in a detail not shown here. Equal values may be shown once.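 Tested at 5 concentrations; 48 h exposure; 96-well plates; endpoints linearly interpolated, else capped at highest concentration. At the GI50, growth is halved. TGI is the concentration that stops growth completely.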 Where a SMILES comes first, the peptide text is derived from it. [ ]: non-standard residue; d: D form. The star is where a group is joined. Phe(4-NO2) = N[CH](Cc1ccc([N+](=O)[O-])cc1)C(=O)O; Boc = CC(C)(C)OC(=O)*; OtBu = CC(C)(C)O*
# How the values were obtained:
# Assay in all cases: DTP human tumour cell line panel, 48 h
# [1] = system: IGROV1 ovarian
# [2] = system: SK-MEL-5 melanoma
# [3] = system: A549 NSCLC
# [4] = system: HCT-116 colon
# [5] = system: U251 CNS
# [6] = system: PC-3 prostate
# [7] = system: UACC-62 melanoma
# [8] = system: HCC-2998 colon
# [9] = system: ACHN renal
# [10] = system: SK-MEL-2 melanoma
Structure (SMILES),TGI [1],TGI [2],TGI [3],TGI [4],TGI [5],TGI [6],TGI [7],TGI [8],TGI [9],TGI [10],GI50 [1] [µM],GI50 [2] [µM],GI50 [4] [µM],GI50 [5] [µM],GI50 [8] [µM],GI50 [9],GI50 [10] [µM]
COc1cccc(N2N=C3c4ccccc4-n4c(nc5ccccc54)C3C2N)c1 (configuration not stated),> 100 µM,> 100 µM,> 100 µM,> 100 µM,> 100 µM,> 100 µM,> 100 µM,> 100 µM,> 100 µM,> 100 µM,–,–,–,–,–,–,–
CN(C)CCNc1nc2ccccc2c2c1C(=O)c1ccccc1-2,0.807 µM,1.92 µM,2.96 µM,1.38 µM,2.83 µM,1.9 µM,0.437 µM,0.511 µM,0.601 µM,1.55 µM,–,–,–,–,–,–,–
C/C=C\C(CC(=O)O)CC(=O)NCCC1CN(S(=O)(=O)C(F)(F)F)c2ccccc21 (configuration not stated),> 100 µM,> 100 µM,> 100 µM,> 100 µM,> 100 µM,> 100 µM,> 100 µM,> 100 µM,> 100 µM,> 100 µM,–,–,–,–,–,–,–
CN(C)CCNC(=O)c1cccc2c(NC(CS)C(=O)O)c3ccccc3nc12 (configuration not stated),28 µM,20 µM,66.9 µM,> 100 µM,> 100 µM,28.2 µM,> 100 µM,> 100 µM,59.8 µM,27.7 µM,–,–,–,–,–,–,–
COc1ccc(CC2C(=O)NC(C)C(=O)N(C)C3Cc4ccc(cc4)Oc4cc(ccc4O)CC(C(=O)NC(C)C(=O)NC(C)C(=O)N2C)N(C)C3=O)cc1 (configuration not stated),0.0203 µM,0.0532 µM and 0.127 µM and 0.0679 µM,0.193 µM and 0.599 µM and 0.306 µM,0.112 µM and 0.0554 µM,–,0.000246 µM,0.161 µM and 0.0223 µM,0.0168 µM and 0.0292 µM,45 µM,–,< 0.0001,0.00102,< 0.0001,< 0.0001,< 0.0001,0.45 µM,< 0.0001
COc1cc(C2S/C(=C/c3ccccc3)C(=O)N2c2ccc(Cl)cc2)cc(OC)c1OC (configuration not stated),> 100 µM,> 100 µM,> 100 µM,> 100 µM,> 94.1 µM,> 84.4 µM,> 100 µM,> 100 µM,> 100 µM,> 30.2 µM,–,–,–,–,–,–,–
Cn1c(=O)c2[nH]c(N/N=C3/SCC(=O)N3Cc3ccccc3)nc2n(C)c1=O,> 100 µM,> 100 µM,> 100 µM,> 100 µM,> 100 µM,> 100 µM,> 100 µM,> 100 µM,> 100 µM,> 100 µM,–,–,–,–,–,–,–
C=C(CCC(C(=O)O)C1CCC2(C)C3=C(CCC12C)C1(C)CCC(O)C(C)(C)C1CC3)C(C)C (configuration not stated),63.1 µM,> 100 µM,> 100 µM,> 100 µM,72.8 µM,> 100 µM,> 100 µM,> 100 µM,> 100 µM,> 100 µM,–,–,–,–,–,–,–
c1csc(-c2ccc(-c3ccc(-c4cccs4)s3)s2)c1,> 100 µM,> 100 µM,> 100 µM,> 100 µM,> 100 µM,> 100 µM,> 100 µM,> 100 µM,> 100 µM,> 100 µM,–,–,–,–,–,–,–
O=C(O)CNC(=O)c1cccc2c(=O)c3ccccc3[nH]c12,> 100 µM,> 100 µM,> 100 µM,> 100 µM,> 100 µM,> 100 µM,> 100 µM,> 100 µM,> 100 µM,> 100 µM,–,–,–,–,–,–,–
CCCCCCCC(CC(=O)O)OC(=O)CC(CCCCCCC)OC1OC(C)C(O)C(O)C1OC1OC(C)C(O)C(O)C1O (configuration not stated),> 100 µM,> 100 µM,> 100 µM,> 100 µM,> 100 µM,> 100 µM,> 100 µM,> 100 µM,> 100 µM,> 100 µM,–,–,–,–,–,–,–
COc1ccc(C[C@H]2COC(=O)[C@@H]2Cc2cc(OC)c(OC)c(OC)c2)cc1OC,> 100 µM,> 74.4 µM,> 100 µM,> 100 µM,> 100 µM,> 100 µM,> 100 µM,> 100 µM,> 100 µM,> 100 µM,–,–,–,–,–,–,–
Cc1cc(S(=O)(=O)NC(=NCC(=O)NN)NN)c(S)cc1Cl,> 10 µM,> 10 µM,> 10 µM,> 10 µM,> 10 µM,> 10 µM,> 10 µM,> 10 µM,> 10 µM,> 10 µM,–,–,–,–,–,–,–
C/C(=N\O)c1ccc(Nc2c3ccccc3nc3occc23)cc1,8.59 µM,6.77 µM,> 11.9 µM,2.52 µM,> 24.6 µM,> 50 µM,16.6 µM,6.35 µM,> 50 µM,3.5 µM,–,–,–,–,–,–,–
CN1C/C(=C\c2ccccc2[N+](=O)[O-])C(=O)/C(=C/c2ccccc2[N+](=O)[O-])C1,2.47 µM and 2.1 µM,2.31 µM and 2.91 µM,14.4 µM and 12.9 µM,0.546 µM and 0.415 µM,3.83 µM and 3.86 µM,6.45 µM and 3.29 µM,2.13 µM and 3.79 µM,5.52 µM and 3.01 µM,1.46 µM and 0.628 µM,8.87 µM and 4.36 µM,–,–,–,–,2.26,0.532 µM and 0.228 µM,–
C=CCOn1c(C=C)nc2c(C)cccc21,22.7 µM,12.7 µM,14.4 µM,4.97 µM,4.84 µM,12.1 µM,6.93 µM,17.8 µM,7.15 µM,4.79 µM,–,–,–,–,–,–,–
Cc1nn(C(=O)c2ccccc2O)c2c1C(c1ccc(O)cc1)SC(N)=N2 (configuration not stated),> 7.17 µM,> 10 µM,> 10 µM,> 3.32 µM,> 10 µM,> 10 µM,> 10 µM,> 10 µM,> 10 µM,> 10 µM,–,–,–,–,–,–,–
c1ccc(COc2ncccc2C2SCCCS2)cc1,> 100 µM,> 100 µM,> 100 µM,> 100 µM,> 100 µM,> 100 µM,> 100 µM,> 100 µM,> 100 µM,> 100 µM,–,–,–,–,–,–,–
CNC(=O)OCC1=C(COC(=O)NC)CN(c2ccccc2)C1,> 100 µM,> 100 µM,> 100 µM,> 100 µM,> 100 µM,> 100 µM,> 100 µM,> 100 µM,> 100 µM,> 100 µM,–,–,–,–,–,–,–

Structure (SMILES),TGI [1],TGI [2],TGI [3],TGI [4],TGI [5],TGI [6],TGI [7],TGI [8],TGI [9],TGI [10],GI50 [1] [µM],GI50 [2] [µM],GI50 [4] [µM],GI50 [5] [µM],GI50 [8] [µM],GI50 [9],GI50 [10] [µM]
CN(Cc1nc2c(N)nc(N)nc2nc1N)c1ccc(C(=O)NC(CCC(=O)O)C(=O)O)cc1 (configuration not stated),> 100 µM,> 100 µM,> 100 µM,> 100 µM,> 100 µM,> 100 µM,> 100 µM,> 100 µM,> 100 µM,> 100 µM,–,–,–,–,–,–,–
O=C(CCCN1CCc2[nH]c3cc(F)ccc3c2C1)c1ccc(F)cc1,30.2 µM,30.8 µM,29.5 µM,24.2 µM,29.8 µM,25.7 µM,25.5 µM,11.9 µM,26.8 µM,32.4 µM,–,–,–,–,–,–,–
COC(=O)C1(Cc2ccccc2)Cc2ccccc2C1=O (configuration not stated),> 100 µM,44 µM,> 100 µM,> 100 µM,85.9 µM,> 100 µM,> 100 µM,> 100 µM,> 100 µM,65.5 µM,–,–,–,–,–,–,–
CC1=CC(c2ccccc2)n2c(nc3cc4ccccc4cc32)N1 (configuration not stated),> 100 µM,> 100 µM,> 100 µM,> 100 µM,> 100 µM,> 100 µM,> 100 µM,> 100 µM,> 100 µM,> 100 µM,–,–,–,–,–,–,–
CCOc1ccc(NC(=S)/N=C/C(C(=O)Nc2ccccc2C)=C(\C)O)cc1,> 100 µM,> 100 µM,> 100 µM,> 100 µM,> 100 µM,> 100 µM,> 100 µM,> 100 µM,> 100 µM,> 100 µM,–,–,–,–,–,–,–
COC(=O)C(Cc1ccc([N+](=O)[O-])cc1)NC(=O)C(CC(=O)OC(C)(C)C)NC(=O)OC(C)(C)C (configuration not stated) (Boc-Asp(OtBu)-[Phe(4-NO2)]-OMe; configuration not given here),> 100 µM,> 100 µM,> 100 µM,> 100 µM,> 100 µM,> 100 µM,> 100 µM,> 100 µM,> 100 µM,> 100 µM,–,–,–,–,–,–,–
COC(=O)CCc1ccc2c(c1)CC1(C2)Cc2ccc(CCC(=O)OC)cc2C1,> 100 µM,57.7 µM,> 100 µM,> 100 µM,> 100 µM,> 100 µM,> 100 µM,> 100 µM,> 100 µM,> 100 µM,–,–,–,–,–,–,–
COc1cc2c(cc1OC)C1Cc3ccccc3CN1CCC2 (configuration not stated),> 100 µM,> 100 µM,> 100 µM,> 100 µM,> 100 µM,> 100 µM,> 100 µM,> 100 µM,> 100 µM,> 100 µM,–,–,–,–,–,–,–
COC1(OC)/C(=C(\N)C=O)NC(C)(C)N1O,> 100 µM,> 100 µM,> 100 µM,> 100 µM,> 100 µM,> 100 µM,> 100 µM,> 100 µM,> 100 µM,> 100 µM,–,–,–,–,–,–,–
O=C(O)c1ccc(Nc2cnc3ccc(C(F)(F)F)cc3n2)cc1,28.5 µM,32 µM,30.8 µM,37.6 µM,59.2 µM,42.6 µM,29.2 µM,19.6 µM,32.6 µM,30.7 µM,–,–,–,–,–,–,–
COc1cc(/C=C2\C[C@H]3[C@@H]4CC=C5C[C@@H](N6CCCC6)CC[C@]5(C)[C@H]4CC[C@]3(C)[C@H]2OC(C)=O)cc(OC)c1OC,29.9 µM,28.4 µM,32 µM,30.5 µM,29.2 µM,27.2 µM,31.7 µM,10.4 µM,32.9 µM,31.6 µM,–,–,–,–,–,–,–
CSC1(SC)CCCCCCCCCCC1,> 100 µM,> 100 µM,> 100 µM,31.4 µM,> 100 µM,> 100 µM,> 100 µM,40.5 µM,> 100 µM,> 100 µM,–,–,–,–,–,–,–
CSc1nc(Br)nc2c1ncn2C1CC(Oc2ccc(C)cc2)C(COc2ccc(C)cc2)O1 (configuration not stated),> 100 µM,> 100 µM,> 100 µM,> 100 µM,> 100 µM,> 100 µM,> 100 µM,> 100 µM,> 100 µM,> 100 µM,–,–,–,–,–,–,–
CCOC(=O)Cc1nc2c(=O)[nH]cnc2n1C1OC(COC(C)=O)C(OC(C)=O)C1OC(C)=O (configuration not stated),> 100 µM,> 100 µM,> 100 µM,> 100 µM,> 100 µM,> 100 µM,> 100 µM,> 100 µM,> 100 µM,> 100 µM,–,–,–,–,–,–,–
CN(C)CCn1c(=O)c2ccc(NCCNCCO)c3c(=O)c4cc(O)ccc4n(c1=O)c23,7.47 µM,5.22 µM,33.9 µM,3.15 µM,8.27 µM,25.1 µM,4.23 µM,2.18 µM,8.64 µM,6.85 µM,–,–,–,–,–,–,–
N#Cc1nnc2c3c(-c4ccc(Cl)cc4)c(C#N)c(=O)[nH]c3nn2c1N,9.65 µM,19.1 µM,> 59.9 µM,15.9 µM,10.7 µM,24.5 µM,4.44 µM,12.7 µM,21.9 µM,26.9 µM,–,–,–,–,–,–,–
COC1(OC)N=C(N)C2(C#N)/C(=N/N(C)C)CC(C)C12C#N (configuration not stated),> 100 µM,> 100 µM,> 100 µM,> 100 µM,> 100 µM,> 100 µM,> 100 µM,> 100 µM,> 100 µM,> 100 µM,–,–,–,–,–,–,–
OCc1ccccc1OC1OC(CO)C(O)C(O)C1O (configuration not stated),> 100 µM,> 100 µM,> 100 µM,> 100 µM,> 100 µM,> 100 µM,> 100 µM,> 100 µM,> 100 µM,> 100 µM,–,–,–,–,–,–,–
